Results on 6 compounds are retold here after ChEMBL document CHEMBL1201862, “PubChem BioAssay data set” (2004).

Active and inactive are the calls of the source.

Assay [1] can be described thus: P. falciparum late gametocyte killing, dose response, luminescence (AID 1117278).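 Further: gametocytes exposed to compound for 24 hours.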 The format is functional, cell-based.
The nature of assay [2]: Jurkat T cell cytotoxicity, dose response, cytotoxicity control for P. falciparum gametocyte viability project, luminescence (AID 1117277).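 Further: potency reflects loss of cellular ATP meaning fewer viable cells.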 It is filed as functional, cell-based.
The target of assay [3] is NAD-dependent protein deacylase sirtuin-5, mitochondrial (Homo sapiens, UniProt Q9NXA8). Description: SIRT5 desuccinylase inhibitors, dose response, biochemical, fluorescence imaging, cherry-pick, set 5 (AID 720591).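 Further: desuccinylation of succinyl peptide AMC substrate read as fluorescence after trypsin release; potency of inhibitors that lower fluorescence and may act on trypsin instead.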
NAD-dependent protein deacylase sirtuin-5, mitochondrial, sequence (Q9NXA8 whole entry): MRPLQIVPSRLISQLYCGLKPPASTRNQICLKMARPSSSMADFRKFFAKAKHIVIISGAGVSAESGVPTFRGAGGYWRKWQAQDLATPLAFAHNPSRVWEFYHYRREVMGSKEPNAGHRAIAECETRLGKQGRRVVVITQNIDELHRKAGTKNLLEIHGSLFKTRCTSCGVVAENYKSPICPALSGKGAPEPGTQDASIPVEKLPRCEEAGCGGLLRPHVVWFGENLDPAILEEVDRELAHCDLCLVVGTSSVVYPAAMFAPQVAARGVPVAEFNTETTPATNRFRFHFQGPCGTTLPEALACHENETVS
For a further assay, the target named is NADPH oxidase 1 (Homo sapiens, UniProt Q9Y5S8). Description: Late stage results from the probe development effort to identify inhibitors of NOX1: HEK/293 IC50. [Related pubchem assays: 1796 (Summary AID (NOX1)), 2752 (Primary screen (NOX1 inhibitors, synthesized analogs set 2)), 2664 (Primary screen (NOX1 inhibitors, synthesized analogs)), 1792 (Primary Screen (NOX1)), 2545 (Confirmation screen (NOX1 …. It is filed as functional.
NADPH oxidase 1, sequence (Q9Y5S8 whole entry): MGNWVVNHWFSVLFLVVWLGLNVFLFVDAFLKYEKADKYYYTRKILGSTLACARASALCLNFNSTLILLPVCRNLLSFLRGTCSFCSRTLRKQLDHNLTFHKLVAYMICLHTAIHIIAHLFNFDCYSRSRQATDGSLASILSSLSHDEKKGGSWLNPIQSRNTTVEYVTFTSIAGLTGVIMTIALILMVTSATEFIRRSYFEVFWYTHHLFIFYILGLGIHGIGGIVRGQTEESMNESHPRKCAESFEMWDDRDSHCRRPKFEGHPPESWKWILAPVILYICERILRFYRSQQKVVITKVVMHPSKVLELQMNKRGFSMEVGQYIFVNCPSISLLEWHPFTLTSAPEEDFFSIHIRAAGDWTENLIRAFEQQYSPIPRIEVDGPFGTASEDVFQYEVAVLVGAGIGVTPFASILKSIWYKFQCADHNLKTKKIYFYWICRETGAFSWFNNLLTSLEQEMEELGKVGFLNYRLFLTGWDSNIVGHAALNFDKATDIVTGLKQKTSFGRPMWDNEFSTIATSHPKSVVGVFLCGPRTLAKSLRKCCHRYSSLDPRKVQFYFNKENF

In a further assay the target is Cytochrome P450 2C19 (Homo sapiens, UniProt P33261). Description: Cytochrome panel assay with activity outcomes. Panel member name: p450-cyp2c19 Compounds with AC50 equal or less than 10 uM are considered active. To be noted: read-out: AC50. It is filed as functional.
Cytochrome P450 2C19, sequence (P33261 whole entry): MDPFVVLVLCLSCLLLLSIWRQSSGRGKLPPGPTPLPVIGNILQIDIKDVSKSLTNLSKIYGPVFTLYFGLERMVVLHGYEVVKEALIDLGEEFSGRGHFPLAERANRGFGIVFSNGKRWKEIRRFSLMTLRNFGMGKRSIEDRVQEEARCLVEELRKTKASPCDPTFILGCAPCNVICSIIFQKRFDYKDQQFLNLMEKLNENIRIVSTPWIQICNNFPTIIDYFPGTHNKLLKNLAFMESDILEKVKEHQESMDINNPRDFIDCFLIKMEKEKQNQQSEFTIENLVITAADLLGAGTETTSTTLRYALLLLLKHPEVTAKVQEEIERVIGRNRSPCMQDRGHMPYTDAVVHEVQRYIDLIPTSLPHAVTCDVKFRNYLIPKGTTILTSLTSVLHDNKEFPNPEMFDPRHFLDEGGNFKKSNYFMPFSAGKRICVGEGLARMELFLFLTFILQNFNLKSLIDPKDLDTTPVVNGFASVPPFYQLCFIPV
Assay [4] is described as follows: inhibitors of Vif binding to APOBEC3G peptide, primary screen, biochemical, TR-FRET, GST-Vif 1-94, biotin-A3G peptide, dose response retest (AID 1117319).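 Further: TR-FRET signal of purified GST-Vif binding a biotinylated A3G peptide; inhibitors lower the FRET signal by blocking Vif and A3G binding.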 The format is functional. In general terms: TR-FRET usually uses a lanthanide donor and a delayed reading to cut background.
The target of another assay is Cytochrome P450 2C9 (Homo sapiens, UniProt P11712).
Cytochrome P450 2C9, sequence (P11712 whole entry): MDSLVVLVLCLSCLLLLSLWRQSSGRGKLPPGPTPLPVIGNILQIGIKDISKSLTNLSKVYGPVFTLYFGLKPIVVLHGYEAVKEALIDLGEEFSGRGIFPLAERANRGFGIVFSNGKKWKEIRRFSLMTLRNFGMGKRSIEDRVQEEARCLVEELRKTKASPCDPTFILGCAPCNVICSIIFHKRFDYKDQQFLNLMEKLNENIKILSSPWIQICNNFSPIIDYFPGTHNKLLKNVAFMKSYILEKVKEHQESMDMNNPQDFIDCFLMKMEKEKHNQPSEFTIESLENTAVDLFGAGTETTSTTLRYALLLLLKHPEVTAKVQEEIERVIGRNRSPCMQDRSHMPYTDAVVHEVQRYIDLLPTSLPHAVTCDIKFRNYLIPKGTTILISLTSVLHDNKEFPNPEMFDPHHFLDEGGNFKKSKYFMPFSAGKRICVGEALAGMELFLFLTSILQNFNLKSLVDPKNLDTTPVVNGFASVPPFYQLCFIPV
The next assay concerns the target Phospholipase D2 (Homo sapiens, UniProt O14939). Briefly: PLD2 Cellular Concentration Response Study. The format is functional.
Another assay deals with Phospholipase D1 (Homo sapiens, UniProt Q13393). Briefly: PLD1 Cellular Concentration Response Study. It is filed as functional.
Phospholipase D1, sequence (Q13393 whole entry): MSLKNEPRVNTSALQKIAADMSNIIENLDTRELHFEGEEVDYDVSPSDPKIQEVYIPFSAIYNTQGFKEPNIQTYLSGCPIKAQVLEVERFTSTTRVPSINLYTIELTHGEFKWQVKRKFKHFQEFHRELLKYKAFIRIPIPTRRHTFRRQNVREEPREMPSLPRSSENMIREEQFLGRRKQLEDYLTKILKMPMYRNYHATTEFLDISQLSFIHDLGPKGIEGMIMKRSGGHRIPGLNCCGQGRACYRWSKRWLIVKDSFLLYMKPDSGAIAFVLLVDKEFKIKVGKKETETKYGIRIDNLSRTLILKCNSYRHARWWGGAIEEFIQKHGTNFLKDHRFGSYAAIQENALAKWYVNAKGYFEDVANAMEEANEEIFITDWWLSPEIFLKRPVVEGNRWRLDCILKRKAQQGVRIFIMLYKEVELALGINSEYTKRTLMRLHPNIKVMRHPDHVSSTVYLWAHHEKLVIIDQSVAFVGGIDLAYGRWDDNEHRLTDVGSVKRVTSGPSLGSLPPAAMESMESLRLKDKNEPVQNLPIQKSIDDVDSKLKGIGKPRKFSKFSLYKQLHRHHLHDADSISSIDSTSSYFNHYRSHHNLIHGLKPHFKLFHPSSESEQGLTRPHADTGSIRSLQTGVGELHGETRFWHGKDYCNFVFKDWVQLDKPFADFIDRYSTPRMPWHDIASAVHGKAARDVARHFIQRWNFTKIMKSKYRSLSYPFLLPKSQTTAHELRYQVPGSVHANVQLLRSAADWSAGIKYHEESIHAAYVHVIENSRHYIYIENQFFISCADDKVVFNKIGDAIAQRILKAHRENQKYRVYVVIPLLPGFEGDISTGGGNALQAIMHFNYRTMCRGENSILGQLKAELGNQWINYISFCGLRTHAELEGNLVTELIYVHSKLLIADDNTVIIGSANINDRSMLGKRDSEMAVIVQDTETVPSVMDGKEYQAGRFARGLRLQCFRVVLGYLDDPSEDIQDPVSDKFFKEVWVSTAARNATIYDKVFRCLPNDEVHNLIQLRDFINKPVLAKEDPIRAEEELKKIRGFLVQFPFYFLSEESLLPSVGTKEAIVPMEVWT
Assay [5] addresses Bifunctional protein GlmU (Mycobacterium tuberculosis, UniProt P9WMN3). Description: Inhibitors of Mycobacterial Glucosamine-1-phosphate acetyl transferase (GlmU). Secondary screen. The arrangement: species or system Mycobacterium tuberculosis H37Rv.
The target of another assay is T1, Protein skinhead-1 (Caenorhabditis elegans, UniProt P34707).
T1 sequence (P34707 whole entry): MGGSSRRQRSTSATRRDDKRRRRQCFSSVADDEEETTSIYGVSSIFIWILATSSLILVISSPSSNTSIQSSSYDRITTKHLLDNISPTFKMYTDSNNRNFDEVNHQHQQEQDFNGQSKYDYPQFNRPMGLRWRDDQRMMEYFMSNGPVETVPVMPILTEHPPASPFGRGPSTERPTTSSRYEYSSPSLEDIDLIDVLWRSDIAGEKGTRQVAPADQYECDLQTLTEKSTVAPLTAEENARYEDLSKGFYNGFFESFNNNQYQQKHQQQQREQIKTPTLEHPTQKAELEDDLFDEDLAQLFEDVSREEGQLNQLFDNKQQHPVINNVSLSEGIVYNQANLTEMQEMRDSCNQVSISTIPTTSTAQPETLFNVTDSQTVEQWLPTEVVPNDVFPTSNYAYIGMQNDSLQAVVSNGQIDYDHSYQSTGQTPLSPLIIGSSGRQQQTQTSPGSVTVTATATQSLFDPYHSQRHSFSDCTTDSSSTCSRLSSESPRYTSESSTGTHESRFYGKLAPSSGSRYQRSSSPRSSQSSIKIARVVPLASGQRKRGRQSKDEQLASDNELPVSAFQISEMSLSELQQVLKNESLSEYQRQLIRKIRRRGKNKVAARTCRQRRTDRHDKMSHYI
It is filed as functional.

Assay [6] has as its target E3 ubiquitin-protein ligase Mdm2 (Homo sapiens, UniProt Q00987). Description: enhancers of MDM2-luciferase reporter signal, concentration-effect titration, project on inhibitors of MDM2 ubiquitin ligase, cellular assay, luminescent readout, 384-well plate format (AID 1394).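 Further: MDM2 E3 inhibitors raise luminescence so EC50 is for signal enhancement.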 The format is functional. (A reporter such as luciferase makes a cellular process visible.)

Bifunctional protein GlmU, sequence (P9WMN3 whole entry): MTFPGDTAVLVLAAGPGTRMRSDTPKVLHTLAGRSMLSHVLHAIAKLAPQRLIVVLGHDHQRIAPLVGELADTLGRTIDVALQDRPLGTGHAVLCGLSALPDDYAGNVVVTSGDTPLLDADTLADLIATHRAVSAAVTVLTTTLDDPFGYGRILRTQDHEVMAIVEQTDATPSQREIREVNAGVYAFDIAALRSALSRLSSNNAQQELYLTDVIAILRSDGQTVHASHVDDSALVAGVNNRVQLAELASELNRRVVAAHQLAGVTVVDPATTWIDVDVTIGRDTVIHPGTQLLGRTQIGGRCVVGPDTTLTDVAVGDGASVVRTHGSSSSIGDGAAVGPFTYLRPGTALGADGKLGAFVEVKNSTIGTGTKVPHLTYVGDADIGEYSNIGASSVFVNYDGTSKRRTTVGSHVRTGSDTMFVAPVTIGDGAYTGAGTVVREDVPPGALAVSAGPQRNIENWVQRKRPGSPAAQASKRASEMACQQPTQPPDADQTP
E3 ubiquitin-protein ligase Mdm2, sequence (Q00987 whole entry): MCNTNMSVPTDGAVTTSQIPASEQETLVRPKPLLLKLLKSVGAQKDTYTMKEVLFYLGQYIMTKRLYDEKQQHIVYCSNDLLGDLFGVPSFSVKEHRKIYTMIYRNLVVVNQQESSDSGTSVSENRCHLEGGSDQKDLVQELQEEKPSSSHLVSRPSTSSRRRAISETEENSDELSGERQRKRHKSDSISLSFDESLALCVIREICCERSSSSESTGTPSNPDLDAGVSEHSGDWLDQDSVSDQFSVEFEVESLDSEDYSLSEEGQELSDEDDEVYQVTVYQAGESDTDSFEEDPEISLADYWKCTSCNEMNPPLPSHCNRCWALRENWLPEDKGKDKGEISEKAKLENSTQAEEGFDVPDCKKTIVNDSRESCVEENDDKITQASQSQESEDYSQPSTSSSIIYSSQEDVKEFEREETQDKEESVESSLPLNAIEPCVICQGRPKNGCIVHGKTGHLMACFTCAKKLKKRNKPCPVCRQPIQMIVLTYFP
Phospholipase D2, sequence (O14939 whole entry): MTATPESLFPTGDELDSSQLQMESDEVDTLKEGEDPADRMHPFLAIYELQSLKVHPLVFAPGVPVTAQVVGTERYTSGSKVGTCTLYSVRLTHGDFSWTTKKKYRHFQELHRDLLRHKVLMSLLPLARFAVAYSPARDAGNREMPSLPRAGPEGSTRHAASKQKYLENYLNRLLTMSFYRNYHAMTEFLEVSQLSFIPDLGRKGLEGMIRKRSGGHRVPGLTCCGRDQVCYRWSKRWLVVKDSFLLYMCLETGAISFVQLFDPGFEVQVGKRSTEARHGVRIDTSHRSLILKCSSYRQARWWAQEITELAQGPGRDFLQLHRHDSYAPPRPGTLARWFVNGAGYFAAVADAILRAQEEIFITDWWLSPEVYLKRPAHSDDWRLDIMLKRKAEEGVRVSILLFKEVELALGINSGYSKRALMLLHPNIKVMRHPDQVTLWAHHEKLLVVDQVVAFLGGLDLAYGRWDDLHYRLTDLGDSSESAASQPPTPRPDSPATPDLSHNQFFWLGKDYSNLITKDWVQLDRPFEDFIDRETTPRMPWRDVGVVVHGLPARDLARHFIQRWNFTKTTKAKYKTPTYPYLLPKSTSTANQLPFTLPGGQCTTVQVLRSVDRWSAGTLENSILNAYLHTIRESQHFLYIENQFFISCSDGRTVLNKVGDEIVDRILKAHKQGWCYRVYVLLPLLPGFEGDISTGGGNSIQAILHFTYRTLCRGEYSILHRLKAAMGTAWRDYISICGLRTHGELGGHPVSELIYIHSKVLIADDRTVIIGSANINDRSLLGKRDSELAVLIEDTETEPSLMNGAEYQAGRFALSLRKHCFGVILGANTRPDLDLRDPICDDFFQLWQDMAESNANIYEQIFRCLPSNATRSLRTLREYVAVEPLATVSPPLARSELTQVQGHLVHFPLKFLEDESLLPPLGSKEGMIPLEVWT

As usually defined, the IC50 is the concentration that gives 50% inhibition. As to `C=CCn1c(SCC(=O)NCc2ccc3c(c2)OCO3)nc2scc(-c3ccc(F)cc3)c2c1=O`, the IC50 in assay [1] was > 109 µM (inactive); in [2] it was 68.6 µM (inactive).

One may read the AC50 as the concentration giving half of the maximal activity seen. Consider `COc1ccc(OC)c(NC(=O)C2CCN(C(=O)c3cccs3)CC2)c1`, for which the AC50 in [3] is 26.6 µM (active).

Consider `O=C(Oc1ccccc1N1CCCCC1)c1sc2ccccc2c1Cl`, for which the IC50 at NADPH oxidase 1 is 2.31 µM (active).

For `COC(=O)[C@@]1(Cc2ccc(OC)cc2)[C@H]2c3cc(C(=O)N(C)C)n(C[C@H](O)CO)c3C[C@H]2CN1C(=O)c1ccccc1`, the concentration at half-maximal activity (AC50) on Cytochrome P450 2C19 and on Cytochrome P450 2C9 was 31.6 µM (inconclusive) throughout. Besides, in [4], the IC50 is > 100 µM (active).

`O=C(NCCN1CCC2(CC1)C(=O)NCN2Cc1ccncc1)c1ccc2ccccc2c1`: the IC50 was 850 nM (active) on Phospholipase D2 and 20 µM (active) at Phospholipase D1.

A word on the EC50: it is the concentration at which the effect is half-maximal. In the case of `CCN(CC)c1ccc(/C=C2/C(=O)c3ccc(C(=O)O)cc3C2=O)cc1`, the IC50 in assay [5] was 34.3 µM (active); on Protein skinhead-1 it was 20.9 µM (active). For the same compound, the EC50 in assay [6] is 70 nM (active).
